Converted amounts (≈) assume the structure as drawn.
How the values were obtained:
Type in all cases: functional
Klebsiella pneumoniae = experiment: In vitro antibacterial activity against Klebsiella X26
[1] = system: Staphylococcus epidermidis; experiment: In vitro antibacterial activity against Staphylococcus epidermidis 222
Staphylococcus aureus = experiment: In vitro antibacterial activity against Staphylococcus aureus X1.1
Streptococcus pneumoniae = experiment: In vitro antibacterial activity against Streptococcus pneumoniae PARK
Escherichia coli = experiment: In vitro antibacterial activity against Escherichia coli EC14
Pseudomonas aeruginosa = experiment: In vitro antibacterial activity against Pseudomonas PS72
Haemophilus influenzae = experiment: In vitro antibacterial activity against Haemophilus influenza C.L
Klebsiella aerogenes = experiment: In vitro antibacterial activity against Enterobacter aerogenes C32

| Structure (SMILES) | MIC (Klebsiella pneumoniae) | MIC [1] | MIC (Staphylococcus aureus) | MIC (Streptococcus pneumoniae) | MIC (Escherichia coli) | MIC (Pseudomonas aeruginosa) | MIC (Haemophilus influenzae) | MIC (Klebsiella aerogenes) |
| --- | --- | --- | --- | --- | --- | --- | --- | --- |
| CCS(=O)(=O)C1=C(C(=O)O)N2C(=O)[C@@H](NC(=O)/C(=N/OCCBr)c3csc(N)n3)CN2C1 | 0.015 mg/L (≈ 0.0272 µM) | 8 mg/L (≈ 14.5 µM) | 8 mg/L (≈ 14.5 µM) | 0.125 mg/L (≈ 0.227 µM) | 0.06 mg/L (≈ 0.109 µM) | > 128 mg/L | 0.25 mg/L (≈ 0.453 µM) | 0.25 mg/L (≈ 0.453 µM) |
| N#CC1=C(C(=O)O)N2C(=O)[C@@H](NC(=O)/C(=N/OCCCl)c3csc(N)n3)CN2C1 | 0.125 mg/L (≈ 0.284 µM) | 16 mg/L (≈ 36.4 µM) | 32 mg/L (≈ 72.8 µM) | 0.5 mg/L (≈ 1.14 µM) | 0.25 mg/L (≈ 0.568 µM) | > 128 mg/L | 0.5 mg/L (≈ 1.14 µM) | 1 mg/L (≈ 2.27 µM) |
| C=CCO/N=C(/C(=O)N[C@H]1CN2CC(C#N)=C(C(=O)O)N2C1=O)c1csc(N)n1 | 0.06 mg/L (≈ 0.144 µM) | 16 mg/L (≈ 38.3 µM) | 32 mg/L (≈ 76.7 µM) | 0.125 mg/L (≈ 0.299 µM) | 0.125 mg/L (≈ 0.299 µM) | > 128 mg/L | 0.125 mg/L (≈ 0.299 µM) | 0.5 mg/L (≈ 1.2 µM) |
| CCCCO/N=C(/C(=O)N[C@H]1CN2CC(C#N)=C(C(=O)O)N2C1=O)c1csc(N)n1 | 0.06 mg/L (≈ 0.138 µM) | 16 mg/L (≈ 36.9 µM) | 16 mg/L (≈ 36.9 µM) | 0.125 mg/L (≈ 0.288 µM) | 1 mg/L (≈ 2.31 µM) | > 128 mg/L | 0.125 mg/L (≈ 0.288 µM) | 2 mg/L (≈ 4.61 µM) |
| CCN1CCN(C(=O)N[C@@H](C(=O)N[C@H]2CN3CC(C#N)=C(C(=O)O)N3C2=O)c2ccccc2)C(=O)C1=O | 0.5 mg/L (≈ 0.981 µM) | 32 mg/L (≈ 62.8 µM) | 16 mg/L (≈ 31.4 µM) | 4 mg/L (≈ 7.85 µM) | 1 mg/L (≈ 1.96 µM) | 128 mg/L (≈ 251 µM) | 0.5 mg/L (≈ 0.981 µM) | 2 mg/L (≈ 3.93 µM) |
| CCCS(=O)(=O)C1=C(C(=O)O)N2C(=O)[C@@H](NC(=O)/C(=N/OCC(F)(F)F)c3csc(N)n3)CN2C1 | 0.06 mg/L (≈ 0.111 µM) | 32 mg/L (≈ 59.2 µM) | 16 mg/L (≈ 29.6 µM) | 0.125 mg/L (≈ 0.231 µM) | 0.25 mg/L (≈ 0.463 µM) | > 128 mg/L | 0.25 mg/L (≈ 0.463 µM) | 1 mg/L (≈ 1.85 µM) |
| CS(=O)(=O)C1=C(C(=O)O)N2C(=O)[C@@H](NC(=O)/C(=N/OCC(=O)O)c3csc(N)n3)CN2C1 | 0.125 mg/L (≈ 0.256 µM) | > 128 mg/L | > 128 mg/L | 2 mg/L (≈ 4.09 µM) | 0.06 mg/L (≈ 0.123 µM) | 128 mg/L (≈ 262 µM) | 1 mg/L (≈ 2.05 µM) | 0.25 mg/L (≈ 0.512 µM) |
| N#CC1=C(C(=O)O)N2C(=O)[C@@H](NC(=O)Cc3csc(N)n3)CN2C1 | 16 mg/L (≈ 45.9 µM) | 64 mg/L (≈ 184 µM) | 32 mg/L (≈ 91.9 µM) | 2 mg/L (≈ 5.74 µM) | 16 mg/L (≈ 45.9 µM) | > 128 mg/L | 32 mg/L (≈ 91.9 µM) | 32 mg/L (≈ 91.9 µM) |
| CCCS(=O)(=O)C1=C(C(=O)O)N2C(=O)[C@@H](NC(=O)/C(=N/OCCF)c3csc(N)n3)CN2C1 | 0.03 mg/L (≈ 0.0595 µM) | 32 mg/L (≈ 63.4 µM) | 16 mg/L (≈ 31.7 µM) | 0.125 mg/L (≈ 0.248 µM) | 0.125 mg/L (≈ 0.248 µM) | > 128 mg/L | 0.125 mg/L (≈ 0.248 µM) | 0.25 mg/L (≈ 0.496 µM) |
| CC(C)(O/N=C(/C(=O)N[C@H]1CN2CC(S(C)(=O)=O)=C(C(=O)O)N2C1=O)c1csc(N)n1)C(=O)O | 0.125 mg/L (≈ 0.242 µM) | > 128 mg/L | > 128 mg/L | 2 mg/L (≈ 3.87 µM) | 0.03 mg/L (≈ 0.0581 µM) | 8 mg/L (≈ 15.5 µM) | 0.06 mg/L (≈ 0.116 µM) | 0.06 mg/L (≈ 0.116 µM) |

Second part, the molecule after the results:

| MIC (Klebsiella pneumoniae) | MIC [1] | MIC (Staphylococcus aureus) | MIC (Streptococcus pneumoniae) | MIC (Escherichia coli) | MIC (Pseudomonas aeruginosa) | MIC (Haemophilus influenzae) | MIC (Klebsiella aerogenes) | Structure (SMILES) |
| --- | --- | --- | --- | --- | --- | --- | --- | --- |
| 0.015 mg/L (≈ 0.0317 µM) | 16 mg/L (≈ 33.9 µM) | 8 mg/L (≈ 16.9 µM) | 0.125 mg/L (≈ 0.265 µM) | 0.125 mg/L (≈ 0.265 µM) | 128 mg/L (≈ 271 µM) | 0.125 mg/L (≈ 0.265 µM) | 0.25 mg/L (≈ 0.529 µM) | CCCO/N=C(/C(=O)N[C@H]1CN2CC(S(C)(=O)=O)=C(C(=O)O)N2C1=O)c1csc(N)n1 |
| 0.03 mg/L (≈ 0.0609 µM) | 32 mg/L (≈ 64.9 µM) | 16 mg/L (≈ 32.5 µM) | 0.25 mg/L (≈ 0.507 µM) | 0.125 mg/L (≈ 0.254 µM) | > 128 mg/L | 0.5 mg/L (≈ 1.01 µM) | 0.125 mg/L (≈ 0.254 µM) | CS(=O)(=O)C1=C(C(=O)O)N2C(=O)[C@@H](NC(=O)/C(=N/OCCCl)c3csc(N)n3)CN2C1 |
| 0.06 mg/L (≈ 0.12 µM) | 8 mg/L (≈ 16 µM) | 8 mg/L (≈ 16 µM) | 0.5 mg/L (≈ 1 µM) | 0.25 mg/L (≈ 0.501 µM) | 128 mg/L (≈ 257 µM) | 0.25 mg/L (≈ 0.501 µM) | 1 mg/L (≈ 2.01 µM) | C=CCCCO/N=C(/C(=O)N[C@H]1CN2CC(S(C)(=O)=O)=C(C(=O)O)N2C1=O)c1csc(N)n1 |
| 0.25 mg/L (≈ 0.533 µM) | 128 mg/L (≈ 273 µM) | 64 mg/L (≈ 136 µM) | 0.25 mg/L (≈ 0.533 µM) | 0.25 mg/L (≈ 0.533 µM) | > 128 mg/L | 2 mg/L (≈ 4.26 µM) | 0.5 mg/L (≈ 1.07 µM) | CS(=O)(=O)C1=C(C(=O)O)N2C(=O)[C@@H](NC(=O)/C(=N/OCC#N)c3csc(N)n3)CN2C1 |
| 0.03 mg/L (≈ 0.0617 µM) | 4 mg/L (≈ 8.22 µM) | 4 mg/L (≈ 8.22 µM) | 0.06 mg/L (≈ 0.123 µM) | 0.25 mg/L (≈ 0.514 µM) | > 128 mg/L | 0.125 mg/L (≈ 0.257 µM) | 1 mg/L (≈ 2.06 µM) | CCCCO/N=C(/C(=O)N[C@H]1CN2CC(S(C)(=O)=O)=C(C(=O)O)N2C1=O)c1csc(N)n1 |
| 0.03 mg/L (≈ 0.0638 µM) | 16 mg/L (≈ 34 µM) | 8 mg/L (≈ 17 µM) | 0.125 mg/L (≈ 0.266 µM) | 0.125 mg/L (≈ 0.266 µM) | 128 mg/L (≈ 272 µM) | 0.125 mg/L (≈ 0.266 µM) | 0.25 mg/L (≈ 0.531 µM) | C=CCO/N=C(/C(=O)N[C@H]1CN2CC(S(C)(=O)=O)=C(C(=O)O)N2C1=O)c1csc(N)n1 |
